pIC50: −log10 of the molar value. Read-outs that look alike come from different tables or passages of the source.
Assays:
Format in all cases: cell-based
NSCLC cell lines [1] = assay: quantitative PCR of gene expression in 5-aza-dC-treated vs DMSO-treated NSCLC cell lines
Procedure: (§1) Cells were grown in RPMI 1640 supplemented with 10% fetal bovine serum and 2 mM L-Glutamine Cells were seeded on day 0 at 4000-9000 cells/cm2 and dosed with 1 μM 5-aza-2′-deoxycytidine (5-aza-dC) (SIGMA-ALDRICH Cat No. A3656) or DMSO control (Cat No. D2650) on days 1, 3, and 5. On day 6 cells were washed once in cold PBS and harvested by scraping in Trizol (Invitrogen, Cat No 15596018) and extracted for RNA or flash frozen for later RNA extraction. For induction of EMT, cells were plated at 20000-50000 cells/10 cm2 in complete medium and supplemented with 2 ng/mL human transforming growth factor beta 1 (TGFβ1) (R&D Systems, Cat No 100-B/CF) or PBS control. Media and TGFβ1 were replaced every 3 days, and RNA was extracted at 4-5 weeks following TGFβ1 induction of EMT. Gene expression changes were assessed using Taqman assays for the 20-gene EMT panel (FIG. 1).
To evaluate the role of methylation in regulating expression of the genes associated with select DMRs, quantitative PCR was carried out in a panel of 34 5-aza-2′-deoxycytidine (5-aza-dC) and dimethyl sulfoxide-treated NSCLC cell lines. […] From this group of genes, CLDN7 was selected as a representative marker of EMT and its methylation status was quantified by pyrosequencing in an extended panel of 42 cell lines.
In FIG. 5A, quantitative methylation was determined at 7 CpG sites by PyroMark analysis software using the equation: % methylation=(C peak height×100/C peak height+T peak height). Data are represented as the mean±SD percentage of methylation at 7 CpG sites. In FIG. 5B, relative expression of CLDN7 mRNA was determined using a standard ΔCt method in 42 (n=20 epithelial-like, 19 mesenchymal-like, 3 intermediate) DMSO-treated and 5-aza-dC-treated NSCLC cell lines. Expression values were calculated as a fold change in 5-aza-dC-treated relative to DMSO-treated control cells. Data are normalized to the housekeeping gene GAPDH and represented as the mean of 2 replicates. DMSO, dimethyl sulfoxide; GAPDH, glyceraldehyde-3-phosphate dehydrogenase.

NSCLC cell lines [2] = assay: erlotinib IC50 determination, Celltiter-Glo Luminescent Cell Viability Assay; conditions: for pIC50: read-out: erlotinib sensitivity (IC50 class)
Procedure: For erlotinib IC50 determination, cells were plated in quadruplicate at 3×10^2 cells per well in 384-well plates in RPMI containing 0.5% FBS (assay medium) and incubated overnight. 24 hours later, cells were treated with assay medium containing 3 nM TGFα and erlotinib at a dose range of 10 μM-1 pM final concentration. After 72 hrs, cell viability was measured using the Celltiter-Glo Luminescent Cell Viability Assay (Promega). The concentration of erlotinib resulting in 50% inhibition of cell viability was calculated from a 4-parameter curve analysis and was determined from a minimum of two experiments.

NSCLC cell lines [3] = assay: TGFβ1 induction of EMT, 20-gene EMT expression panel and morphology; conditions: 2 cell lines, 2 ng/mL TGFβ1
Procedure: as §1
2 μl of total RNA was reverse-transcribed to cDNA and pre-amplified in a single reaction using Superscript III/Platinum Taq (Invitrogen) and Pre-amplification reaction mix (Invitrogen). 20 Taqman primer/probe sets selected for the EMT expression panel (FIG. 1) were included in the pre-amplification reaction at a final dilution of 0.05× original Taqman assay concentration (Applied Biosystems). […]
Pre-amplified cDNA was diluted 1.94-fold and then amplified using Taqman Universal PCR MasterMix (Applied Biosystems) on the BioMark BMK-M-96.96 platform (Fluidigm) according to the manufacturer's instructions. […] Two custom-designed reference genes that were previously evaluated for their expression stability across multiple cell lines, fresh-frozen tissue samples, and FFPE tissue samples, AL-1377271 and VPS-33B, were included in the expression panel. A mean of the Ct values for the two reference genes was calculated for each sample, and expression levels of EMT target genes were determined using the delta Ct (dCt) method as follows: Mean Ct (Target Gene)−Mean Ct (Reference Genes). […]

## Nc1ncn([C@H]2C[C@H](O)[C@@H](CO)O2)c(=O)n1 [5-aza-dC, 5-aza-2′-deoxycytidine]
NSCLC cell lines [1]; majority of the epithelial-like cell lines, 1 μM 5-aza-dC
  induction of CLDN7 expression: not induced further
NSCLC cell lines [1]; mesenchymal-like versus epithelial-like lines, panel of 34 NSCLC cell lines
  induction of GRHL2, ESRP1, and CLDN7 transcripts: significant induction
NSCLC cell lines [1]; nearly all mesenchymal-like lines, 1 μM 5-aza-dC, normalized to GAPDH
  induction of CLDN7 expression, fold change in 5-aza-dC-treated relative to DMSO-treated control cells: > 10 fold

## C#Cc1cccc(Nc2ncnc3cc(OCCOC)c(OCCOC)cc23)c1 [erlotinib, [6,7-bis(2-methoxyethoxy)-4-quinazolin-4-yl]-(3-ethynylphenyl) amine]
NSCLC cell lines [2]; 6 EGFR-mutant NSCLC cell lines
  pIC50: ≥ 5.70
NSCLC cell lines [2]; 72 h, RERF-LC-MS cell line, 72 hrs, 3 nM TGFα
  pIC50: ≥ 5.70
NSCLC cell lines [2]; H1993, MET amplification
  erlotinib sensitivity: resistance
NSCLC cell lines [2]; Homo sapiens, NCI-H838, 72 h, H838 cell line, 72 hrs, 3 nM TGFα
  pIC50: ≥ 5.70
NSCLC cell lines [2]; Homo sapiens, NCI-H2030, 72 h, H2030 cell line, 72 hrs, 3 nM TGFα
  pIC50: ≥ 5.70
NSCLC cell lines [2]; Homo sapiens, SK-MES-1, 72 h, SK-MES-1 cell line, 72 hrs, 3 nM TGFα
  pIC50: ≥ 5.70
NSCLC cell lines [2]; epithelial-like line H1975, T790M mutation in EGFR
  erlotinib sensitivity: resistance
NSCLC cell lines [2]; nearly all mesenchymal-like lines
  pIC50: ≤ 5.10

## TGFβ1: human transforming growth factor beta 1 (R&D Systems), used for induction of EMT
NSCLC cell lines [3]
  morphologic changes: induced morphologic changes associated with an EMT
NSCLC cell lines [3]; 20-gene EMT panel
  expression of genes associated with a mesenchymal phenotype: upregulated
  expression of genes associated with an epithelial phenotype: downregulated

From US20130084287A1, “DIAGNOSTIC MARKERS” (GENENTECH, INC., priority 2011, published 2013)
